In patent US6174873A, “Oral administration of adenosine analogs” (SuperGen, Inc., priority 1998, dated 2001):

Assay: Survival of beagle dogs during the dCF bioavailability study
Assay type: in vivo
Conditions: four female beagle dogs, 0.25 mg/kg IV or 1.25-5.0 mg/kg PO for 2 days
Source text: Four female beagle dogs were assigned to this study.

## OC[C@H]1O[C@@H](n2cnc3c2NC=NC[C@H]3O)C[C@@H]1O [dCF, 2'-deoxycoformycin]
  mortality during the course of the study: None of the dogs died
